pIC50: −log10 of the molar value. Values after ≈ are worked out from the molar mass of the structure shown.
Columns and labels:
[1] = tested on: Staphylococcus epidermidis; experiment: Antibacterial activity against Staphylococcus epidermidis 56500 after 18 hrs by twofold microbroth dilution method; assay type: functional; conditions: Staphylococcus epidermidis, 56500, 18 h
Streptococcus pneumoniae [2] = experiment: Antibacterial activity against Streptococcus pneumoniae J-24 after 18 hrs by twofold microbroth dilution method; assay type: functional; conditions: J-24, 18 h
Streptococcus pyogenes = experiment: Antibacterial activity against Streptococcus pyogenes G-36 after 18 hrs by twofold microbroth dilution method; assay type: functional; conditions: G-36, 18 h
Streptococcus mitis = experiment: Antibacterial activity against Streptococcus mitis IID685 after 18 hrs by twofold microbroth dilution method; assay type: functional; conditions: IID685, 18 h
Pseudomonas aeruginosa = experiment: Antibacterial activity against Pseudomonas aeruginosa PAO1 after 18 hrs by twofold microbroth dilution method; assay type: functional; conditions: PAO1, 18 h
Staphylococcus aureus [3] = experiment: Antibacterial activity against levofloxacin, methicillin-resistant Staphylococcus aureus after 18 hrs by twofold microbroth dilution method; assay type: functional
Escherichia coli = experiment: Antibacterial activity against Escherichia coli NIHJ after 18 hrs by twofold microbroth dilution method; assay type: functional
Enterococcus faecalis [4] = experiment: Antibacterial activity against Enterococcus faecalis ATCC 19433 after 18 hrs by twofold microbroth dilution method; assay type: functional; conditions: ATCC19433, 18 h
[5] = Inhibition of Staphylococcus aureus wild type DNA topoisomerase 4
Staphylococcus aureus [6] = experiment: Antibacterial activity against Staphylococcus aureus FDA 209-P after 18 hrs by twofold microbroth dilution method; assay type: functional
Klebsiella pneumoniae = experiment: Antibacterial activity against Klebsiella pneumoniae type 2 after 18 hrs by twofold microbroth dilution method; assay type: functional; conditions: type 2, 18 h
[7] = Inhibition of Staphylococcus aureus DNA topoisomerase 4 Ser80Phe mutant
Mus musculus [8] = experiment: Toxicity in Slc:ddY mouse at 50 mg/kg, iv; assay type: organism-based; parameters: dose 50 mg/kg, route intravenous; conditions: in vivo
Mus musculus [9] = experiment: Toxicity in Slc:ddY mouse at 100 mg/kg, iv; assay type: organism-based; parameters: dose 100 mg/kg, route intravenous; conditions: in vivo
[10] = Aqueous […] of the compound; assay type: physicochemical; conditions: aqueous (not further specified)
DNA gyrase subunit A = DNA gyrase subunit A (Staphylococcus aureus, UniProt P20831, S84L); experiment: Inhibition of Staphylococcus aureus DNA gyrase Ser84Leu mutant
Staphylococcus aureus [11] = experiment: Antibacterial activity against ciprofloxacin, methicillin-resistant Staphylococcus aureus after 18 hrs by twofold microbroth dilution method; assay type: functional
Enterococcus faecalis [12] = experiment: Antibacterial activity against vancomycin-resistant Enterococcus faecalis after 18 hrs by twofold microbroth dilution method; assay type: functional
Enterococcus faecium = experiment: Antibacterial activity against vancomycin-resistant Enterococcus faecium after 18 hrs by twofold microbroth dilution method; assay type: functional
Streptococcus pneumoniae [13] = experiment: Antibacterial activity against penicillin-intermediate resistant Streptococcus pneumoniae after 18 hrs by twofold microbroth dilution method; assay type: functional
Staphylococcus aureus [14] = experiment: Selectivity ratio of IC50 for Staphylococcus aureus DNA topoisomerase 4 Ser80Phe mutant to IC50 for Staphylococcus aureus wild type DNA topoisomerase 4
Staphylococcus aureus [15] = experiment: Selectivity ratio of IC50 for Staphylococcus aureus DNA gyrase Ser84Leu mutant to IC50 for Staphylococcus aureus wild type DNA gyrase
DNA gyrase = DNA gyrase (Staphylococcus aureus, UniProt P0A0K8+P20831); experiment: Inhibition of Staphylococcus aureus wild type DNA gyrase; assay type: protein-complex assay
Mus musculus [16] = experiment: Toxicity in Slc:ddY mouse at 150 mg/kg, iv; assay type: organism-based; parameters: dose 150 mg/kg, route intravenous; conditions: in vivo

| Compound | MIC [1] | MIC (Streptococcus pneumoniae [2]) | MIC (Streptococcus pyogenes) | MIC (Streptococcus mitis) | MIC (Pseudomonas aeruginosa) | MIC50 (Staphylococcus aureus [3]) | MIC80 (Staphylococcus aureus [3]) | MIC90 (Staphylococcus aureus [3]) | MIC (Escherichia coli) | MIC (Enterococcus faecalis [4]) | IC50 [5] | MIC (Staphylococcus aureus [6]) | MIC (Klebsiella pneumoniae) | IC50 [7] | pIC50 (DNA gyrase subunit A) | MIC50 (Staphylococcus aureus [11]) | MIC90 (Staphylococcus aureus [11]) | MIC50 (Enterococcus faecalis [12]) | MIC90 (Enterococcus faecalis [12]) | MIC50 (Enterococcus faecium) | further results |
| --- | --- | --- | --- | --- | --- | --- | --- | --- | --- | --- | --- | --- | --- | --- | --- | --- | --- | --- | --- | --- | --- |
| O=C(O)c1cn(C2CC2)c2cc(N3CCNCC3)c(F)cc2c1=O [CIPROFLOXACIN] | 0.2 µg/mL (≈ 0.604 µM) | 0.39 µg/mL (≈ 1.18 µM) | 1.56 µg/mL (≈ 4.71 µM) | 0.78 µg/mL (≈ 2.35 µM) | 0.05 µg/mL (≈ 0.151 µM) | > 64 µg/mL | > 64 µg/mL | > 64 µg/mL | ≤ 0.003 µg/mL | 0.78 µg/mL (≈ 2.35 µM) | 1.24 µg/mL (≈ 3.74 µM) | 0.05 µg/mL (≈ 0.151 µM) | 0.025 µg/mL (≈ 0.0754 µM) | 22.4 µg/mL (≈ 67.6 µM) | – | – | – | – | – | – | – |
| COc1c(N2CC[C@@H]([C@H](C)N)C2)c(F)cc2c(=O)c(C(=O)O)cn(C3CC3)c12 | 0.012 µg/mL (≈ 0.0308 µM) | – | 0.012 µg/mL (≈ 0.0308 µM) | 0.025 µg/mL (≈ 0.0642 µM) | – | – | – | – | 0.012 µg/mL (≈ 0.0308 µM) | 0.05 µg/mL (≈ 0.128 µM) | – | – | 0.05 µg/mL (≈ 0.128 µM) | – | – | – | – | – | – | – | Activity (Mus musculus [8]): Toxic; Activity (Mus musculus [9]): Toxic; solubility [10]: 89 µg/mL (≈ 229 µM) |
| C[C@H]1COc2c(N3CCN(C)CC3)c(F)cc3c(=O)c(C(=O)O)cn1c23.C[C@H]1COc2c(N3CCN(C)CC3)c(F)cc3c(=O)c(C(=O)O)cn1c23.O [LEVOFLOXACIN] | – | – | – | – | – | 16 µg/mL | > 64 µg/mL | > 64 µg/mL | – | – | 2.67 µg/mL | – | – | 57.1 µg/mL | < 2.86 | – | – | – | – | – | – |
| NCC[C@H](O)C(=O)N[C@@H]1C[C@H](N)[C@@H](O[C@H]2O[C@H](CN)CC[C@H]2N)[C@H](O)[C@H]1O[C@H]1O[C@H](CO)[C@@H](O)[C@H](N)[C@H]1O [ARBEKACIN] | – | – | – | – | – | – | – | – | – | – | – | – | – | – | – | 8 µg/mL (≈ 14.5 µM) | 32 µg/mL (≈ 57.9 µM) | 2 µg/mL (≈ 3.62 µM) | 2 µg/mL (≈ 3.62 µM) | 16 µg/mL (≈ 29 µM) | MIC90 (Enterococcus faecium): 32 µg/mL (≈ 57.9 µM); MIC50 (Streptococcus pneumoniae [13]): 32 µg/mL (≈ 57.9 µM); MIC90 (Streptococcus pneumoniae [13]): 64 µg/mL (≈ 116 µM) |
| C[C@H]1NCc2cc(-c3ccc4c(=O)c(C(=O)O)cn(C5CC5)c4c3OC(F)F)ccc21 [GARENOXACIN] | 0.05 µg/mL (≈ 0.117 µM) | 0.025 µg/mL (≈ 0.0586 µM) | 0.1 µg/mL (≈ 0.235 µM) | 0.05 µg/mL (≈ 0.117 µM) | 0.78 µg/mL (≈ 1.83 µM) | 2 µg/mL (≈ 4.69 µM) | 64 µg/mL (≈ 150 µM) | 64 µg/mL (≈ 150 µM) | 0.012 µg/mL (≈ 0.0281 µM) | 0.2 µg/mL (≈ 0.469 µM) | 1.14 µg/mL (≈ 2.67 µM) | 0.025 µg/mL (≈ 0.0586 µM) | 0.05 µg/mL (≈ 0.117 µM) | 20.7 µg/mL (≈ 48.5 µM) | < 2.92 | 1 µg/mL (≈ 2.35 µM) | 32 µg/mL (≈ 75 µM) | 4 µg/mL (≈ 9.38 µM) | 8 µg/mL (≈ 18.8 µM) | 8 µg/mL (≈ 18.8 µM) | Ratio IC50 (Staphylococcus aureus [14]): 18.2; Ratio IC50 (Staphylococcus aureus [15]): > 143; MIC90 (Enterococcus faecium): 32 µg/mL (≈ 75 µM); MIC50 (Streptococcus pneumoniae [13]): 0.12 µg/mL (≈ 0.281 µM); MIC90 (Streptococcus pneumoniae [13]): 0.12 µg/mL (≈ 0.281 µM); pIC50 (DNA gyrase): 5.07 |
| COc1c(N2CCNC(C)C2)c(F)cc2c(=O)c(C(=O)O)cn(C3CC3)c12 (centres undefined) [GATIFLOXACIN] | 0.2 µg/mL (≈ 0.533 µM) | 0.2 µg/mL (≈ 0.533 µM) | 0.39 µg/mL (≈ 1.04 µM) | 0.2 µg/mL (≈ 0.533 µM) | 0.78 µg/mL (≈ 2.08 µM) | – | – | – | 0.006 µg/mL (≈ 0.016 µM) | 0.39 µg/mL (≈ 1.04 µM) | 1.85 µg/mL (≈ 4.93 µM) | 0.05 µg/mL (≈ 0.133 µM) | 0.05 µg/mL (≈ 0.133 µM) | 22.5 µg/mL (≈ 59.9 µM) | 3.12 | 4 µg/mL (≈ 10.7 µM) | 64 µg/mL (≈ 170 µM) | 16 µg/mL (≈ 42.6 µM) | 32 µg/mL (≈ 85.2 µM) | 4 µg/mL (≈ 10.7 µM) | Ratio IC50 (Staphylococcus aureus [14]): 12.2; Ratio IC50 (Staphylococcus aureus [15]): 89.1; MIC90 (Enterococcus faecium): 32 µg/mL (≈ 85.2 µM); MIC50 (Streptococcus pneumoniae [13]): 0.5 µg/mL (≈ 1.33 µM); MIC90 (Streptococcus pneumoniae [13]): 0.5 µg/mL (≈ 1.33 µM); pIC50 (DNA gyrase): 5.07 |
| COc1c(N2CC[C@@H](C3(N)CC3)C2)c(F)cc2c(=O)c(C(=O)O)cn([C@@H]3C[C@@H]3F)c12 | ≤ 0.003 µg/mL | ≤ 0.003 µg/mL | 0.003 µg/mL (≈ 0.00715 µM) | 0.003 µg/mL (≈ 0.00715 µM) | 0.2 µg/mL (≈ 0.477 µM) | – | – | – | ≤ 0.003 µg/mL | 0.012 µg/mL (≈ 0.0286 µM) | – | ≤ 0.003 µg/mL | 0.012 µg/mL (≈ 0.0286 µM) | – | – | – | – | – | – | – | Activity (Mus musculus [16]): Toxic; Activity (Mus musculus [8]): Toxic; Activity (Mus musculus [9]): Toxic; solubility [10]: 221 µg/mL (≈ 527 µM) |

Reference: ChEMBL document CHEMBL1152592, “Design, synthesis and biological evaluations of novel 7-[3-(1-aminocycloalkyl)pyrrolidin-1-yl]-6-desfluoro-8-methoxyquinolones with potent antibacterial activity against multi-drug resistant Gram-positive bacteria” (Bioorg Med Chem, 2009)
